How the values were obtained:
Escherichia coli [1] = assay: Antimicrobial activity against Escherichia coli at 20 ug/ml after 24 hr by disk diffusion method; type: functional; settings: read-out: IZ
Escherichia coli [2] = assay: Antimicrobial activity against Escherichia coli at 20 ug/ml after 24 hr by disk diffusion method relative to ampicillin; type: functional
[3] = Acute toxicity in Rattus norvegicus (rat); type: organism-based; settings: in vivo
Brevundimonas diminuta [4] = assay: Antimicrobial activity against Brevundimonas diminuta at 20 ug/ml after 24 hr by disk diffusion method relative to ampicillin; type: functional
Bacillus subtilis [5] = assay: Antimicrobial activity against Bacillus subtilis at 20 ug/ml after 24 hr by disk diffusion method relative to ampicillin; type: functional
Priestia megaterium [6] = assay: Antimicrobial activity against Bacillus megaterium at 20 ug/ml after 24 hr by disk diffusion method relative to ampicillin; type: functional
Bacillus subtilis [7] = assay: Antimicrobial activity against Bacillus subtilis at 20 ug/ml after 24 hr by disk diffusion method; type: functional; settings: read-out: IZ
Brevundimonas diminuta [8] = assay: Antimicrobial activity against Brevundimonas diminuta at 20 ug/ml after 24 hr by disk diffusion method; type: functional; settings: read-out: IZ
Priestia megaterium [9] = assay: Antimicrobial activity against Bacillus megaterium at 20 ug/ml after 24 hr by disk diffusion method; type: functional; settings: read-out: IZ

## c1ccc(C2=Nc3ccccc3C23C(c2ccccc2)N3c2ccccc2)cc1 (stereo not drawn)
Escherichia coli [1]
  zone of inhibition at 20 µg/mL: 9.5 mm
Escherichia coli [2]
  Ratio: 90.5
[3]
  LD50: 4240 mg/kg
Brevundimonas diminuta [4]
  Ratio: 148.1
Bacillus subtilis [5]
  Ratio: 109.3
Priestia megaterium [6]
  Ratio: 83.3
Bacillus subtilis [7]
  zone of inhibition at 20 µg/mL: 10.2 mm
Brevundimonas diminuta [8]
  zone of inhibition at 20 µg/mL: 13.3 mm
Priestia megaterium [9]
  zone of inhibition at 20 µg/mL: 9.8 mm

## O=[N+]([O-])c1cccc(N2C(c3ccccc3)C23C(c2ccccc2)=Nc2ccccc23)c1 (stereo not drawn)
Escherichia coli [1]
  zone of inhibition at 20 µg/mL: 17.7 mm
Escherichia coli [2]
  Ratio: 168.3
[3]
  LD50: 4500 mg/kg
Brevundimonas diminuta [4]
  Ratio: 229.6
Bacillus subtilis [5]
  Ratio: 184.6
Priestia megaterium [6]
  Ratio: 142.7
Bacillus subtilis [7]
  zone of inhibition at 20 µg/mL: 17.2 mm
Brevundimonas diminuta [8]
  zone of inhibition at 20 µg/mL: 20.7 mm
Priestia megaterium [9]
  zone of inhibition at 20 µg/mL: 16.8 mm

## COc1cccc(N2C(c3ccccc3)C23C(c2ccccc2)=Nc2ccccc23)c1 (stereo not drawn)
Escherichia coli [1]
  zone of inhibition at 20 µg/mL: 20.8 mm
Escherichia coli [2]
  Ratio: 198.4
[3]
  LD50: 5120 mg/kg
Brevundimonas diminuta [4]
  Ratio: 253.7
Bacillus subtilis [5]
  Ratio: 231.2
Priestia megaterium [6]
  Ratio: 149.7
Bacillus subtilis [7]
  zone of inhibition at 20 µg/mL: 21.5 mm
Brevundimonas diminuta [8]
  zone of inhibition at 20 µg/mL: 22.8 mm
Priestia megaterium [9]
  zone of inhibition at 20 µg/mL: 17.7 mm

## CCOc1ccccc1N1C(c2ccccc2)C12C(c1ccccc1)=Nc1ccccc12 (stereo not drawn)
Escherichia coli [1]
  zone of inhibition at 20 µg/mL: 25 mm
Escherichia coli [2]
  Ratio: 238.1
[3]
  LD50: 4820 mg/kg
Brevundimonas diminuta [4]
  Ratio: 303.7
Bacillus subtilis [5]
  Ratio: 276
Priestia megaterium [6]
  Ratio: 187.9
Bacillus subtilis [7]
  zone of inhibition at 20 µg/mL: 25.7 mm
Brevundimonas diminuta [8]
  zone of inhibition at 20 µg/mL: 27.3 mm
Priestia megaterium [9]
  zone of inhibition at 20 µg/mL: 22.2 mm

## Clc1ccc(N2C(c3ccccc3)C23C(c2ccccc2)=Nc2ccccc23)cc1 (stereo not drawn)
Escherichia coli [1]
  zone of inhibition at 20 µg/mL: 7.7 mm
Escherichia coli [2]
  Ratio: 73
[3]
  LD50: 4240 mg/kg
Brevundimonas diminuta [4]
  Ratio: 118.5
Bacillus subtilis [5]
  Ratio: 78.6
Priestia megaterium [6]
  Ratio: 57.9
Bacillus subtilis [7]
  zone of inhibition at 20 µg/mL: 7.3 mm
Brevundimonas diminuta [8]
  zone of inhibition at 20 µg/mL: 10.7 mm
Priestia megaterium [9]
  zone of inhibition at 20 µg/mL: 6.8 mm

## Cc1cccc(N2C(c3ccccc3)C23C(c2ccccc2)=Nc2ccccc23)c1 (stereo not drawn)
Escherichia coli [1]
  zone of inhibition at 20 µg/mL: 13.5 mm
Escherichia coli [2]
  Ratio: 128.6
[3]
  LD50: 3840 mg/kg
Brevundimonas diminuta [4]
  Ratio: 192.6
Bacillus subtilis [5]
  Ratio: 155.9
Priestia megaterium [6]
  Ratio: 114.4
Bacillus subtilis [7]
  zone of inhibition at 20 µg/mL: 14.5 mm
Brevundimonas diminuta [8]
  zone of inhibition at 20 µg/mL: 17.3 mm
Priestia megaterium [9]
  zone of inhibition at 20 µg/mL: 13.5 mm

## Oc1cccc(N2C(c3ccccc3)C23C(c2ccccc2)=Nc2ccccc23)c1 (stereo not drawn)
Escherichia coli [1]
  zone of inhibition at 20 µg/mL: 10.5 mm
Escherichia coli [2]
  Ratio: 100
[3]
  LD50: 5080 mg/kg
Brevundimonas diminuta [4]
  Ratio: 174.1
Bacillus subtilis [5]
  Ratio: 123.7
Priestia megaterium [6]
  Ratio: 89
Bacillus subtilis [7]
  zone of inhibition at 20 µg/mL: 11.5 mm
Brevundimonas diminuta [8]
  zone of inhibition at 20 µg/mL: 15.7 mm
Priestia megaterium [9]
  zone of inhibition at 20 µg/mL: 10.5 mm

## Clc1cccc(N2C(c3ccccc3)C23C(c2ccccc2)=Nc2ccccc23)c1 (stereo not drawn)
Escherichia coli [1]
  zone of inhibition at 20 µg/mL: 15.8 mm
Escherichia coli [2]
  Ratio: 150.8
[3]
  LD50: 4380 mg/kg
Brevundimonas diminuta [4]
  Ratio: 207.4
Bacillus subtilis [5]
  Ratio: 166.7
Priestia megaterium [6]
  Ratio: 121.5
Bacillus subtilis [7]
  zone of inhibition at 20 µg/mL: 15.5 mm
Brevundimonas diminuta [8]
  zone of inhibition at 20 µg/mL: 18.7 mm
Priestia megaterium [9]
  zone of inhibition at 20 µg/mL: 14.3 mm

## O=[N+]([O-])c1ccc(N2C(c3ccccc3)C23C(c2ccccc2)=Nc2ccccc23)cc1 (stereo not drawn)
Escherichia coli [1]
  zone of inhibition at 20 µg/mL: 8.8 mm
Escherichia coli [2]
  Ratio: 84.1
[3]
  LD50: 5380 mg/kg
Brevundimonas diminuta [4]
  Ratio: 127.8
Bacillus subtilis [5]
  Ratio: 89.6
Priestia megaterium [6]
  Ratio: 73.4
Bacillus subtilis [7]
  zone of inhibition at 20 µg/mL: 8.3 mm
Brevundimonas diminuta [8]
  zone of inhibition at 20 µg/mL: 11.5 mm
Priestia megaterium [9]
  zone of inhibition at 20 µg/mL: 8.7 mm

## CC1(C)S[C@@H]2[C@H](NC(=O)[C@H](N)c3ccccc3)C(=O)N2[C@H]1C(=O)O [AMPICILLIN]
Escherichia coli [1]
  zone of inhibition at 20 µg/mL: 10.5 mm
Bacillus subtilis [7]
  zone of inhibition at 20 µg/mL: 9.3 mm
Brevundimonas diminuta [8]
  zone of inhibition at 20 µg/mL: 9 mm
Priestia megaterium [9]
  zone of inhibition at 20 µg/mL: 11.8 mm

## Oc1ccc(N2C(c3ccccc3)C23C(c2ccccc2)=Nc2ccccc23)cc1 (stereo not drawn)
Escherichia coli [1]
  zone of inhibition at 20 µg/mL: 6 mm
Escherichia coli [2]
  Ratio: 57.1
[3]
  LD50: 4480 mg/kg
Brevundimonas diminuta [4]
  Ratio: 85.2
Bacillus subtilis [5]
  Ratio: 59.1
Priestia megaterium [6]
  Ratio: 46.6
Bacillus subtilis [7]
  zone of inhibition at 20 µg/mL: 5.5 mm
Brevundimonas diminuta [8]
  zone of inhibition at 20 µg/mL: 7.7 mm
Priestia megaterium [9]
  zone of inhibition at 20 µg/mL: 5.5 mm

## O=C(O)c1ccccc1N1C(c2ccccc2)C12C(c1ccccc1)=Nc1ccccc12 (stereo not drawn)
Escherichia coli [1]
  zone of inhibition at 20 µg/mL: 4.2 mm
Escherichia coli [2]
  Ratio: 39.7
[3]
  LD50: 3840 mg/kg
Brevundimonas diminuta [4]
  Ratio: 64.8
Bacillus subtilis [5]
  Ratio: 35.8
Priestia megaterium [6]
  Ratio: 36.7
Bacillus subtilis [7]
  zone of inhibition at 20 µg/mL: 3.3 mm
Brevundimonas diminuta [8]
  zone of inhibition at 20 µg/mL: 5.8 mm
Priestia megaterium [9]
  zone of inhibition at 20 µg/mL: 4.3 mm

## O=[N+]([O-])c1ccccc1N1C(c2ccccc2)C12C(c1ccccc1)=Nc1ccccc12 (stereo not drawn)
Escherichia coli [1]
  zone of inhibition at 20 µg/mL: 18.3 mm
Escherichia coli [2]
  Ratio: 174.6
[3]
  LD50: 3560 mg/kg
Brevundimonas diminuta [4]
  Ratio: 244.4
Bacillus subtilis [5]
  Ratio: 207.9
Priestia megaterium [6]
  Ratio: 151.1
Bacillus subtilis [7]
  zone of inhibition at 20 µg/mL: 19.3 mm
Brevundimonas diminuta [8]
  zone of inhibition at 20 µg/mL: 22 mm
Priestia megaterium [9]
  zone of inhibition at 20 µg/mL: 17.8 mm

## Clc1ccccc1N1C(c2ccccc2)C12C(c1ccccc1)=Nc1ccccc12 (stereo not drawn)
Escherichia coli [1]
  zone of inhibition at 20 µg/mL: 17 mm
Escherichia coli [2]
  Ratio: 161.9
[3]
  LD50: 4040 mg/kg
Brevundimonas diminuta [4]
  Ratio: 222.2
Bacillus subtilis [5]
  Ratio: 175.6
Priestia megaterium [6]
  Ratio: 131.4
Bacillus subtilis [7]
  zone of inhibition at 20 µg/mL: 16.3 mm
Brevundimonas diminuta [8]
  zone of inhibition at 20 µg/mL: 20 mm
Priestia megaterium [9]
  zone of inhibition at 20 µg/mL: 15.5 mm

## COc1ccccc1N1C(c2ccccc2)C12C(c1ccccc1)=Nc1ccccc12 (stereo not drawn)
Escherichia coli [1]
  zone of inhibition at 20 µg/mL: 21.2 mm
Escherichia coli [2]
  Ratio: 201.6
[3]
  LD50: 5150 mg/kg
Brevundimonas diminuta [4]
  Ratio: 266.7
Bacillus subtilis [5]
  Ratio: 247.3
Priestia megaterium [6]
  Ratio: 158.2
Bacillus subtilis [7]
  zone of inhibition at 20 µg/mL: 23 mm
Brevundimonas diminuta [8]
  zone of inhibition at 20 µg/mL: 24 mm
Priestia megaterium [9]
  zone of inhibition at 20 µg/mL: 18.7 mm

## Oc1ccccc1N1C(c2ccccc2)C12C(c1ccccc1)=Nc1ccccc12 (stereo not drawn)
Escherichia coli [1]
  zone of inhibition at 20 µg/mL: 11.3 mm
Escherichia coli [2]
  Ratio: 107.9
[3]
  LD50: 4360 mg/kg
Brevundimonas diminuta [4]
  Ratio: 188.9
Bacillus subtilis [5]
  Ratio: 136.2
Priestia megaterium [6]
  Ratio: 107.3
Bacillus subtilis [7]
  zone of inhibition at 20 µg/mL: 12.7 mm
Brevundimonas diminuta [8]
  zone of inhibition at 20 µg/mL: 17 mm
Priestia megaterium [9]
  zone of inhibition at 20 µg/mL: 12.7 mm

## CCOc1cccc(N2C(c3ccccc3)C23C(c2ccccc2)=Nc2ccccc23)c1 (stereo not drawn)
Escherichia coli [1]
  zone of inhibition at 20 µg/mL: 24.3 mm
Escherichia coli [2]
  Ratio: 231.7
[3]
  LD50: 4640 mg/kg
Brevundimonas diminuta [4]
  Ratio: 288.9
Bacillus subtilis [5]
  Ratio: 263.4
Priestia megaterium [6]
  Ratio: 176.6
Bacillus subtilis [7]
  zone of inhibition at 20 µg/mL: 24.5 mm
Brevundimonas diminuta [8]
  zone of inhibition at 20 µg/mL: 26 mm
Priestia megaterium [9]
  zone of inhibition at 20 µg/mL: 20.8 mm
